Earlier results in patent publication US20030158237A1, “Combination of antioxidant substances for the treatment of alzheimer's disease” (priority 2001, published 2003).

What was measured:
isolated LDL = conditions: 0.025-0.3 mg/l added to isolated LDL; dose dependent
[1] = test system: NF-kappa B binding induced by ceramide; conditions: in comparison with N-acetylcystein, acetate d-alpha-tocopherol, ascorbic acid
341 patients = conditions: single-agent therapy, 2 years; vitamin E 2,000 UI/daily, selegiline 10 mg daily
[2] = test system: hippocampal cell cultures
[3] = test system: DNA fragmentation induced by low-dose t-BuOOH; conditions: mouse

O=C(O)C=Cc1ccc(O)c(O)c1 [caffeic acid, 3-(3,4-Dihydroxyphenyl)-2-propenoic acid]
time of oxidation of LDL (isolated LDL): prolonged
activity of the NF-kappa B binding induced by ceramide [1]: inhibits significantly
apoptotic response induced by ceramide [1]: inhibits significantly

C#CCN(C)[C@H](C)Cc1ccccc1 [selegiline]
retarded cognitive deterioration (341 patients): 25%

vitamin E
retarded cognitive deterioration (341 patients): 25%
beta A4 induced cell death [2]: reduces beta A4 induced cell death
adverse effects with high doses (3000 IU): indigestion, gastric distress, diarrhea and severe cramps
adverse symptoms (uncommon) (in vivo): cataract, haemorrhage risk in patient with vitamin K deficiency, and syncope

NC(=O)c1cccnc1 [nicotinamide]
DNA fragmentation [3]: able to prevent DNA fragmentation
